Here are results for ten compounds from US8946426B2, “Substituted bicyclic heterocyclic compounds as gamma secretase modulators” (Janssen Pharmaceuticals, Inc., priority 2009, dated 2015).

The structures appear in SMILES notation.

Experiment [1] relates to Aβ42. The experiment is described as follows: Method 1: Aβ42 sandwich ELISA in supernatant of SKNBE2 cells carrying APP 695-wild type (Tables 7a, 7b). The experiment is classed as cell-based. In short, it runs like this: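 IC50 values were derived with a 4-parameter equation, fitting either percent inhibition or percent of compound-free Aβ42 as the control. The Aβ42 came from supernatants of APP695 wild-type SKNBE2 cells treated for 18 hours. It was measured by ELISA with anti-Aβ42 capture, biotinylated 3D6 and TMB absorbance at 450 nm.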

For experiment [2], the system named is Aβ42. Put plainly: In vivo efficacy: Aβ42 lowering in brain after single oral dose (Table 8). Particulars: mouse brain soluble fraction, ELISA, compared to untreated animals. The source says: To determine whether acute administration of an Aβ42 lowering agent would reduce Aβ42 levels in vivo, non-transgenic rodents, e.g. mice or rats were used. Alternatively, two to three month old Tg2576 mice expressing APP695 containing the “Swedish” variant can be used or a transgenic mouse model developed by Dr. Fred Van Leuven (K.U.Leuven, Belgium) and co-workers, with neuron-specific expression of a clinical mutant of the human amyloid precursor protein [V7171] (Moechars et al., 1999 J. Biol. Chem. 274, 6483). Young transgenic mice have high levels of Aβ in the brain but no detectable Aβ deposition. At approximately 6-8 months of age, the transgenic mice start to display spontaneous, progressive accumulation of β-amyloid (Aβ) in the brain, eventually resulting in amyloid plaques within the subiculum, hippocampus and cortex. Animals treated with the Aβ42 lowering agent were examined and compared to those untreated or treated with vehicle and brain levels of soluble Aβ42 and total Aβ would be quantitated by standard techniques, for example, using ELISA. Treatment periods varied from hours to days and were adjusted based on the results of the Aβ42 lowering once a time course of onset of effect could be established.
A typical protocol for measuring Aβ42 lowering in vivo is shown but it is only one of many variations that could be used to optimize the levels of detectable Aβ. For example, Aβ42 lowering compounds were formulated in 20% of Captisol® (a sulfobutyl ether of β-cyclodextrin) in water or 20% hydroxypropyl β cyclodextrin. The Aβ42 lowering agents were administered as a single oral dose or by any acceptable route of administration to overnight fasted animals. After four hours, the animals were sacrificed and Aβ42 levels were analysed.
Blood was collected by decapitation and exsanguinations in EDTA-treated collection tubes. Blood was centrifuged at 1900 g for 10 min at 4° C. and the plasma recovered and flash frozen for later analysis. The brain was removed from the cranium and hindbrain. The cerebellum was removed and the left and right hemisphere were separated. The left hemisphere was stored at −18° C. for quantitative analysis of test compound levels. The right hemisphere was rinsed with phosphate-buffered saline (PBS) buffer and immediately frozen on dry ice and stored at −80° C. until homogenization for biochemical assays.
Mouse brains were resuspended in 10 volumes of 0.4% DEA (diethylamine)/50 mM NaCl pH 10 (for non-transgenic animals) or 0.1% 3-[(3-cholamidopropyl)-dimethyl-ammonio]-1-propanesulfonate (CHAPS) in tris buffered saline (TBS) (for transgenic animals) containing protease inhibitors (Roche-11873580001 or 04693159000 per gram of tissue, e.g. for 0.158 g brain, add 1.58 ml of 0.4% DEA. All samples were sonicated for 30 sec on ice at 20% power output (pulse mode). Homogenates were centrifuged at 221.300×g for 50 min. The resulting high speed supernatants were then transferred to fresh tubes and were optionally further purified before the next step. A portion of the supernatant was neutralized with 10% 0.5 M Tris-HCl and this was used to quantify Aβtotal.
The obtained supernatants were purified with Water Oasis HLB reverse phase columns (Waters Corp., Milford, Mass.) to remove non-specific immunoreactive material from the brain lysates prior subsequent Aβ detection. Using a vacuum manifold, all solutions were passed through the columns at a rate of approximately 1 ml per minute, so the vacuum pressure was adjusted accordingly throughout the procedure. Columns were preconditioned with 1 ml of 100% MeOH, before equilibration with 1 ml of H2O. Non-neutralized brain lysates were loaded onto the columns. The loaded samples were then washed twice with the first wash performed with 1 ml of 5% MeOH, and the second wash with 1 ml of 30% MeOH. Finally, the Aβ was eluted from the columns and into 100×30 mm glass tubes, with a solution of 90% MeOH with 2% NH4OH. […]

[3] abbreviates: Homo sapiens, SKNBE2, Table 7b, averaged IC50, non-linear regression of percentage of control vs log concentration, 4-parameter equation.
[4] abbreviates: Homo sapiens, Table 7a, SKNBE2 cells, compounds 18 h, XLfit 4-parameter fit of percent inhibition, top/bottom fixed to 100/0, hill slope 1.
Setting [5] is: Table 7b, averaged IC50, non-linear regression of percentage of control vs log concentration, 4-parameter equation.

As to `Cc1ncoc1-c1ccc(Nc2cccc3c2nc(-c2ccc(F)cc2)n3C)nc1` [Compound 10], the half-inhibitory concentration (IC50) (usually the concentration that inhibits the measured activity by half) was 355 nM in experiment [1] (setting [3]) and 358 nM in experiment [1] (setting [4]). Further, the “Aβ42 (% Ctrl)_Mean” value in experiment [2] worked out at 106 % Ctrl.
For `COc1cc(Nc2cccc3c2nc(CCC(F)(F)F)n3C)ccc1-c1ocnc1C` [Compound 11], in that order: 71 nM, 72 nM and 91 % Ctrl.
For `COc1cc(Nc2cccc3c2nc(-c2ccc(F)cc2)n3C)ccc1-c1ocnc1C` [Compound 12], in that order: 21 nM, 23 nM and 56 % Ctrl.
The matching figures for `COc1cc(Nc2cccc3c2nc(-c2ccc(F)cc2)n3C)ccc1-c1cnc(C)o1` [Compound 16]: 9 nM, 11 nM and 58 % Ctrl.
As for `Cc1ncc(-c2ccc(Nc3nccc4c3nc(-c3ccc(F)cc3)n4C)cc2F)o1` [Compound 17], the IC50 in experiment [1] (setting [3]) is > 10000 nM. Moreover, in experiment [2], the “Aβ42 (% Ctrl)_Mean” value was 106 % Ctrl.
With `Cc1ncc(-c2ccc(Nc3cccc4c3nc(-c3ccc(F)cc3)n4C(C)C)cn2)o1` [Compound 18], in experiment [1] (setting [3]), half-maximal inhibition (IC50) required 35 nM. Further, the “Aβ42 (% Ctrl)_Mean” value in experiment [2] is reported as 54 % Ctrl.
For `COc1cccc(-c2nc3c(Nc4ccc(-c5cnc(C)o5)nc4)cc(F)cc3n2C)c1` [Compound 105], the 50% inhibitory concentration (IC50) in experiment [1] (setting [5]) came out at 7 nM. In addition, the “Aβ42 (% Ctrl)_Mean” value in experiment [2] worked out at 104 % Ctrl.
As for `COc1cc(Nc2nc(C(F)(F)F)cn3cc(C)nc23)ccc1-c1cnc(C)o1` [Compound 170], the IC50 in experiment [1] (setting [5]) was 3550 nM. The “Aβ42 (% Ctrl)_Mean” value in experiment [2] was determined as 99 % Ctrl.
The matching figures for `COc1cc(Nc2cncc3c2nc(-c2ccc(F)cc2)n3C)ccc1-c1cnc(C)o1` [Compound 186]: 162 nM and 52 % Ctrl.
In turn, `COc1cc(Nc2cc(C(F)(F)F)nn3cc(C)nc23)ccc1-c1cnc(C)o1` [Compound 195] displayed a half-maximal inhibitory concentration (IC50) in experiment [1] (setting [5]) of 195 nM. Further, in experiment [2], the “Aβ42 (% Ctrl)_Mean” value was 89 % Ctrl.
